# Measured values from patent publication US20100048462A1, “TRUNCATED PTH PEPTIDES WITH A CYCLIC CONFORMATION” (Zealand Pharma A/S, priority 2006, published 2010).
# Bridge positions count the residues as written; N and C are the ends. Square brackets hold non-standard residues; d marks the D form. Peptide text beside a SMILES is read from it. I, II: the chains in the order shown. hArg = N=C(N)NCCCC[C@H](N)C(=O)O; Met(O) = CS(=O)CC[C@H](N)C(=O)O; Ac5c = NC1(C(=O)O)CCCC1; Nva = CCC[C@H](N)C(=O)O; Aib = CC(C)(N)C(=O)O
# Target: T1, Saos-2 PTH1R (Homo sapiens, UniProt Q03431)
# T1 construct: endogenous in cells; host or cells: Saos-2
# T1 sequence (Q03431 27-593): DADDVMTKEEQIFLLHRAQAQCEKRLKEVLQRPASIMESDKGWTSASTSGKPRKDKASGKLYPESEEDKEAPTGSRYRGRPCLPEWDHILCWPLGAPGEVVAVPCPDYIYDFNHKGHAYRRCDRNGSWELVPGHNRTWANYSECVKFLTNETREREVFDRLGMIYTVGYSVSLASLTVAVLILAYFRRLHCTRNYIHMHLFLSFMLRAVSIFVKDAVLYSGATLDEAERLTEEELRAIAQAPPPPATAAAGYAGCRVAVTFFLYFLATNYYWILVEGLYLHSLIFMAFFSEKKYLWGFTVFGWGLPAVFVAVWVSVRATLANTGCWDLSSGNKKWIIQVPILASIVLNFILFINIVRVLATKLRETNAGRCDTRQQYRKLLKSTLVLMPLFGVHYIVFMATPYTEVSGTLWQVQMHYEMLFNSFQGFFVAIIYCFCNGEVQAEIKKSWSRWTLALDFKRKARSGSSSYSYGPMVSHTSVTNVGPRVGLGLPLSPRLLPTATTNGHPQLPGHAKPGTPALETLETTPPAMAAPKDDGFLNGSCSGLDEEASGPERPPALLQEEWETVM
# Test: cAMP-efficacy assay in Saos-2 cells
# Type: cell-based
# Details: for Emax ± SEM: relative effect to the control (SEQ ID NO: 32); for EC50: cAMP, 100 μM IBMX, 37° C. 15 min, suffix of label = salt tested
# Method: Peptides were dissolved in phosphate buffered saline and further diluted in Tyrode's buffer (TB, Sigma-Aldrich) containing 0.1% BSA and 100 μM isobutyl-methyl-xanthine (IBMX, Sigma-Aldrich). Saos-2 cells were seeded at 50,000 cells/well in 96-microtiter plates and grown for two days before the efficacy assays. On the day of analysis, the growth medium was carefully removed by suction. Cells were washed once with 200 μl TB/0.1% BSA. The buffer was replaced with 100 μl reaction mixture (±test peptide), and incubated at 37° C. for 15 min. The reaction was stopped by addition of 25 μl of ice-cold 0.5 M HCl. Cells were in the following incubated on ice for 60 min. 75 μl acetate-buffer, pH6.2, was added to each well of a 96-well cAMP FlashPlate (Perkin-Elmer). […] FlashPlates were incubated overnight at 4° C., emptied by suction and counted in a TopCounter (Packard).
# Determinations were performed in single determinations or triplicates at all doses. […] Standards were included as single determinations, duplicates or triplicates in each experiment, preferentially on each plate.
# Concentration-dependent cAMP responses were imported into GraphPad Prism vers. 4 (GraphPad Software), transformed and plotted. […] Thus, a four-parameter logistic equation was used for determination of the EC50 values. Curves were fitted with a function for sigmoidal dose response curve (variable slope) non-linear fit Y=Bottom+(Top-Bottom)/(1+10̂((LogEC50−X)*HillSlope)) where X is the logarithm of concentration and Y is the response. Y starts at Bottom and goes to Top with a sigmoid shape. pEC50, Hill-coefficient and the maximally inducible concentration of cAMP (Emax) were evaluated.
# Overall statistical differences were analyzed with Statistica (Statsoft) using one-way ANOVA. Post-hoc comparisons were made by the use of Fisher's Least Significance Test. Results were considered significant, when p was lower than 0.05.
Compound,Emax ± SEM,EC50 [nM]
"CC[C@H](C)[C@H](NC(=O)[C@H](CCC(=O)O)NC(=O)C(C)(C)NC(=O)[C@@H](NC(=O)C1(N)CCCC1)C(C)C)C(=O)N[C@@H](CCC(N)=O)C(=O)N[C@@H](CC(C)C)C(=O)N[C@@H](CCSC)C(=O)N[C@@H](Cc1c[nH]cn1)C(=O)N[C@@H](CCC(N)=O)C(=O)N[C@@H](CCCCNC(=N)N)C(=O)N[C@@H](C)C(=O)N[C@H]1CCCCNC(=O)C[C@@H](C(N)=O)NC(=O)[C@H](CC(N)=O)NC(=O)[C@H](CC(C)C)NC(=O)[C@H](Cc2c[nH]c3ccccc23)NC(=O)[C@@H](NC(=O)[C@H](C)NC(=O)[C@H](CCCCNC(=N)N)NC(=O)[C@H](CCC(N)=O)NC(=O)[C@H](Cc2c[nH]cn2)NC(=O)[C@H](CCSC)NC(=O)[C@H](CC(C)C)NC(=O)[C@H](CCC(N)=O)NC(=O)[C@@H](NC(=O)[C@H](CCC(=O)O)NC(=O)C(C)(C)NC(=O)[C@@H](NC(=O)C2(N)CCCC2)C(C)C)[C@@H](C)CC)CCCCNC(=O)C[C@@H](C(N)=O)NC(=O)[C@H](CC(N)=O)NC(=O)[C@H](CC(C)C)NC(=O)[C@H](Cc2c[nH]c3ccccc23)NC1=O [SEQ ID NO: 39, (H-Ac5c-Val-Aib-Glu-Ile-Gln-Leu-Met-His-Gln-Har-Ala-Lys( )-Trp-Leu-Asn-Asp( )-NH2)2] (I: H-[Ac5c]V[Aib]EIQLMHQ[hArg]AKWLND-NH2 / II: H-[Ac5c]V[Aib]EIQLMHQ[hArg]AKWLND-NH2; amide I:13-II:17, I:17-II:13)",0.95 ± 0.05,–
"CC[C@H](C)[C@H](NC(=O)[C@H](CCC(=O)O)NC(=O)C(C)(C)NC(=O)[C@@H](NC(=O)C1(N)CCCC1)C(C)C)C(=O)N[C@@H](CCC(N)=O)C(=O)N[C@@H](CC(C)C)C(=O)N[C@@H](CCSC)C(=O)N[C@@H](Cc1c[nH]cn1)C(=O)N[C@@H](CCC(N)=O)C(=O)N[C@@H](CCCCNC(=N)N)C(=O)N[C@@H](C)C(=O)N[C@@H](CCCCN)C(=O)N[C@@H](Cc1c[nH]c2ccccc12)C(=O)N[C@@H](CC(C)C)C(=O)N[C@@H](CC(N)=O)C(=O)N[C@@H](CC(=O)O)C(=O)O [SEQ ID NO: 38, H-Ac5c-Val-Aib-Glu-Ile-Gln-Leu-Met-His-Gln-Har-Ala-Lys-Trp-Leu-Asn-Asp-OH] (H-[Ac5c]V[Aib]EIQLMHQ[hArg]AKWLND-OH)",1.2,100
"CC[C@H](C)[C@H](NC(=O)[C@H](CCC(=O)O)NC(=O)C(C)(C)NC(=O)[C@@H](NC(=O)C1(N)CCCC1)C(C)C)C(=O)N[C@@H](CCC(N)=O)C(=O)N[C@@H](CC(C)C)C(=O)N[C@@H](CC(C)C)C(=O)N[C@@H](Cc1c[nH]cn1)C(=O)N[C@@H](CCC(N)=O)C(=O)N[C@@H](CCCCNC(=N)N)C(=O)N[C@@H](CCCNC(=N)N)C(=O)N[C@H]1CCCCNC(=O)C[C@@H](C(N)=O)NC(=O)[C@H](CC(N)=O)NC(=O)[C@H](CC(C)C)NC(=O)[C@H](Cc2c[nH]c3ccccc23)NC1=O [SEQ ID NO: 28, H-Ac5c-Val-Aib-Glu-Ile-Gln-Leu-Leu-His-Gln-Har-Arg-Lys( )-Trp-Leu-Asn-Asp( )-NH2] (H-[Ac5c]V[Aib]EIQLLHQ[hArg]RKWLND-NH2; lactam 13-17)",0.95 ± 0.06,5.37
"CC[C@H](C)[C@H](NC(=O)[C@H](CCC(=O)O)NC(=O)C(C)(C)NC(=O)[C@@H](NC(=O)C1(N)CCCC1)C(C)C)C(=O)N[C@@H](CCC(N)=O)C(=O)N[C@@H](CC(C)C)C(=O)N[C@@H](CCSC)C(=O)N[C@@H](Cc1c[nH]cn1)C(=O)N[C@@H](CCC(N)=O)C(=O)N[C@@H](CCCCNC(=N)N)C(=O)N[C@@H](C)C(=O)N[C@H]1CC(=O)NCCCC[C@@H](C(N)=O)NC(=O)[C@H](CC(N)=O)NC(=O)[C@H](CC(C)C)NC(=O)[C@H](Cc2c[nH]c3ccccc23)NC1=O [SEQ ID NO: 6, H-Ac5c-Val-Aib-Glu-Ile-Gln-Leu-Met-His-Gln-Har-Ala-Asp( )-Trp-Leu-Asn-Lys( )-NH2] (H-[Ac5c]V[Aib]EIQLMHQ[hArg]ADWLNK-NH2; lactam 13-17)",1.5,126
"CC[C@H](C)[C@H](NC(=O)[C@H](CCC(=O)O)NC(=O)C(C)(C)NC(=O)[C@@H](NC(=O)C1(N)CCCC1)C(C)C)C(=O)N[C@@H](CCC(N)=O)C(=O)N[C@@H](CC(C)C)C(=O)N[C@@H](CC(C)C)C(=O)N[C@@H](Cc1c[nH]cn1)C(=O)N[C@@H](CCC(N)=O)C(=O)N[C@@H](CCCCNC(=N)N)C(=O)N[C@@H](C)C(=O)N[C@H]1CCCCNC(=O)C[C@@H](C(=O)O)NC(=O)[C@H](CC(N)=O)NC(=O)[C@H](CC(C)C)NC(=O)[C@H](Cc2c[nH]c3ccccc23)NC1=O [SEQ ID NO: 5, H-Ac5c-Val-Aib-Glu-Ile-Gln-Leu-Leu-His-Gln-Har-Ala-Lys( )-Trp-Leu-Asn-Asp( )-OH] (H-[Ac5c]V[Aib]EIQLLHQ[hArg]AKWLND-OH; lactam 13-17)",1.16 ± 0.12,72.4
"CC[C@H](C)[C@H](NC(=O)[C@H](CCC(=O)O)NC(=O)C(C)(C)NC(=O)[C@@H](NC(=O)C1(N)CCCC1)C(C)C)C(=O)N[C@@H](CCC(N)=O)C(=O)N[C@@H](CC(C)C)C(=O)N[C@@H](CC[S+](C)[O-])C(=O)N[C@@H](Cc1c[nH]cn1)C(=O)N[C@@H](CCC(N)=O)C(=O)N[C@@H](CCCCNC(=N)N)C(=O)N[C@@H](C)C(=O)N[C@H]1CCCCNC(=O)C[C@@H](C(N)=O)NC(=O)[C@H](CC(N)=O)NC(=O)[C@H](CC(C)C)NC(=O)[C@H](Cc2c[nH]c3ccccc23)NC1=O (stereo partly drawn) [SEQ ID NO: 40, H-Ac5c-Val-Aib-Glu-Ile-Gln-Leu-Met(O)-His-Gln-Har-Ala-Lys( )-Trp-Leu-Asn-Asp( )-NH2] (H-[Ac5c]V[Aib]EIQL[Met(O)]HQ[hArg]AKWLND-NH2; lactam 13-17)",1.1,126
CC[C@H](C)[C@H](NC(=O)[C@H](CCC(=O)O)NC(=O)C(C)(C)NC(=O)[C@@H](NC(=O)C1(N)CCCC1)C(C)C)C(=O)N[C@@H](CCC(N)=O)C(=O)N[C@@H](CC(C)C)C(=O)N[C@@H](CCSC)C(=O)N[C@@H](Cc1c[nH]cn1)C(=O)N[C@@H](CCC(N)=O)C(=O)N[C@@H](CCCNC(=N)N)C(=O)N[C@@H](C)C(=O)N[C@H]1CCCCNC(=O)C[C@@H](C(N)=O)NC(=O)[C@H](CC(N)=O)NC(=O)[C@H](CC(C)C)NC(=O)[C@H](Cc2c[nH]c3ccccc23)NC1=O [SEQ ID NO: 25] (H-[Ac5c]V[Aib]EIQLMHQRAKWLND-NH2; lactam 13-17),1.04 ± 0.03,8.91
"CCC[C@H](N)C(=O)N[C@H](C(=O)NC(C)(C)C(=O)N[C@@H](CCC(=O)O)C(=O)N[C@H](C(=O)N[C@@H](CCC(N)=O)C(=O)N[C@@H](CC(C)C)C(=O)N[C@@H](CC(C)C)C(=O)N[C@@H](Cc1c[nH]cn1)C(=O)N[C@@H](CCC(N)=O)C(=O)N[C@@H](CCCCNC(=N)N)C(=O)N[C@@H](C)C(=O)N[C@H]1CCCCNC(=O)C[C@@H](C(N)=O)NC(=O)[C@H](CC(N)=O)NC(=O)[C@H](CC(C)C)NC(=O)[C@H](Cc2c[nH]c3ccccc23)NC1=O)[C@@H](C)CC)C(C)C [SEQ ID NO: 12, H-Nva-Val-Aib-Glu-Ile-Gln-Leu-Leu-His-Gln-Har-Ala-Lys( )-Trp-Leu-Asn-Asp( )-NH2] (H-[Nva]V[Aib]EIQLLHQ[hArg]AKWLND-NH2; lactam 13-17)",1.04 ± 0.03,102
"CC[C@H](C)[C@H](NC(=O)[C@H](CCC(=O)O)NC(=O)C(C)(C)NC(=O)[C@@H](NC(=O)C1(N)CCCC1)C(C)C)C(=O)N[C@@H](CCC(N)=O)C(=O)N[C@@H](CC(C)C)C(=O)N[C@@H](CCSC)C(=O)N[C@@H](Cc1c[nH]cn1)C(=O)N[C@@H](CCC(N)=O)C(=O)N[C@@H](CCCCNC(=N)N)C(=O)N[C@@H](C)C(=O)N[C@H]1CCCCNC(=O)C[C@@H](C(N)=O)NC(=O)[C@H](CC(N)=O)NC(=O)[C@H](CC(C)C)NC(=O)[C@H](Cc2c[nH]c3ccccc23)NC1=O [2A, H-Ac5c-Val-Aib-Glu-Ile-Gln-Leu-Met-His-Gln-Har-Ala-Lys( )Trp-Leu-Asn-Asp( )-NH2] (H-[Ac5c]V[Aib]EIQLMHQ[hArg]AKWLND-NH2; lactam 13-17)",0.99 ± 0.03,6.31
